The subject of assay [1] is Mycobacterium tuberculosis H37Ra (ATCC 25177). The assay is described as follows: In vitro anti-tubercular activity by XTT Reduction Menadione assay (XRMA). It is filed as cell-based. As to conditions: 192 h, read-out: Mycobacterium tuberculosis H37Ra (ATCC 25177) IC50. The method, then: All the synthesized compounds 6a–j were screened for their in vitro anti-tubercular activity against MTB H37Ra (ATCC 25177). Rifampicin was used as a positive control.
In Vitro Anti-Tubercular Activity by the XTT Reduction Menadione Assay (XRMA) Method
Mycobacterium tuberculosis H37Ra (ATCC 25177) strains were obtained from AstraZeneca, India. The stock culture was maintained at −80 °C and subcultured once in a liquid M. pheli medium which contained 0.5 g KH2PO4, 0.25 g trisodium citrate, 60 mg MgSO4, 0.5 gm asparagine, and 2 mL glycerol in distilled water (100 mL) followed by pH adjustment to 6.6. Bacilli stock cultures were grown in M. pheli medium at 37 °C with continuous agitation at 150 RPM;, it takes at least 8–10 days for OD 1 at 620 nm. Stock solutions (10 mg/mL) of all the synthesized compounds were prepared in DMSO and were evaluated for in vitro anti-tubercular activity against Mycobacterium tuberculosis H37Ra (ATCC 25177) in a liquid medium using an established XTT Reduction Menadione assay (XRMA) method. Briefly, the 96 wells plate received 248.5 μL of M. Pheli medium consisting of bacilli and 2.5 μL of test solutions in serial dilution (12.5, 6.25, 3.125, 1.5625, 0.78 μg/mL). The plates were sealed with a 96-well sealing sheet and incubated at 37 °C for 8 days. Post incubation, XRMA was carried out to estimate viable cells present in different wells of the assay plate. The absorbance was read on a micro plate reader (Spectramax plus384 plate reader, Molecular Devices Inc., San Jose, CA, USA) at 470 nm filter against a blank prepared from cell-free wells. Absorbance given by cells treated with the vehicle alone was taken as 100% cell growth. MIC and IC50 values of compounds were calculated by using Origin 6 software. Percent inhibition was calculated by using following formula:% Inhibition = [(absorbance of Control − absorbance of Test)/(absorbance of Control − absorbance of Blank)] × 100(1) where control is the medium with bacilli along with vehicle and blank is cell-free medium. The drug in clinical use, rifampicin was used as a reference.
Background: Tetrazolium assays rely on reduction of a dye to a coloured formazan, in cell work by metabolically active cells.

Assay [2] has as its system human cervical cancer cell line HeLa. The assay is described as follows: In vitro cytotoxicity by MTT assay. Format: cell-based. The settings on record: 48 h, concentration range 100–0.1 μg/mL, read-out: Hela Cells IC50. Here is the method:
To lowers the failure of potential therapeutics at later stages of clinical trials toxicity analysis of synthesized compounds at the early stage of research work plays a very important role. To examine the safety of the synthesized compounds, 6a–j were evaluated for their toxicity against human cervical cancer cell line HeLa using the concentration range between 100–0.1 μg/mL.
All the synthesized compounds were tested for their cytotoxicity by a modified MTT assay as described previously. Briefly, cells were seeded at the density of 1 × 10^5 cells/mL in a 96-well plate. The plates were incubated overnight in CO2 incubator (37 °C under 5% CO2 and 95% air in a humidified atmosphere). Next day, cells were treated with synthesized compounds at 10-fold dilution (100–0.1 µg/mL) and incubated for an additional 48 h. Paclitaxel was used as positive control. Post incubation, cell medium was replaced with MTT (0.5 mg/mL)-PBS medium and incubated for 2–4 h to form the reduced MTT or Formazan crystals. This reduced MTT or Formazan crystals were solubilized by addition of 100 µL of SDS-DMF (20% SDS in 50% DMF). The optical density was read on a microplate reader (Spectramax plus 384 plate reader, Molecular Devices Inc.) at 570 nm filter against a blank prepared from cell-free wells. Absorbance given by cells treated with the vehicle alone was taken as 100% cell growth. IC50 and MIC values were calculated from graphs, using Origin Pro software. Where DMSO treated culture cells is control and culture medium without cells is blank. The percent cytotoxicity in the presence of test fractions was calculated by the following formula:Percent cytotoxicity = [(average absorbance of control − absorbance of a compound)/(absorbance of control − absorbance of blank)] × 100(2)

Where [3] appears, read: XRMA, 8 days incubation at 37 °C, liquid M. pheli medium.

≈ marks a conversion by molar mass, not a printed value. Like-named read-outs stand apart in the source and are kept apart here.

For orientation: IC50 means the concentration that inhibits the measured activity by half.

In the case of `CCOc1cc(C2C(Cl)C(=O)N2NC(=O)c2ccc(OCc3ccccc3)cc2)ccc1O` (stereo not shown) [Derivative 6h, 4-(Benzyloxy)-N-(3-chloro-2-(3-ethoxy-4-hydroxyphenyl)-4-oxoazetidin-1-yl) benzamide], the results for the IC50 in assay [1] (setting [3]) and in assay [2] were 0.85 µg/mL (≈ 1.82 µM) and > 100 µg/mL, respectively. The matching figures for `O=C(NN1C(=O)C(Cl)C1c1ccc(Cl)cc1)c1ccc(OCc2ccccc2)cc1` (stereo not shown) [Derivative 6d, 4-(Benzyloxy)-N-(3-chloro-2-(4-chlorophenyl)-4-oxoazetidin-1-yl) benzamide]: 1.34 µg/mL (≈ 3.04 µM) and 70.4 µg/mL (≈ 159 µM). Take `O=C(NN1C(=O)C(Cl)C1c1cccc([N+](=O)[O-])c1)c1ccc(OCc2ccccc2)cc1` (stereo not shown) [Derivative 6e, 4-(Benzyloxy)-N-(3-chloro-2-(3-nitrophenyl)-4-oxoazetidin-1-yl) benzamide]: the values for the IC50 in assay [1] (setting [3]) and in assay [2] were 0.654 µg/mL (≈ 1.45 µM) and > 100 µg/mL, respectively.

For `O=C(NN1C(=O)C(Cl)C1c1ccc(OCc2ccccc2)cc1)c1ccc(OCc2ccccc2)cc1` (stereo not shown) [Derivative 6i, 4-(Benzyloxy)-N-(2-(4-(benzyloxy)phenyl)-3-chloro-4-oxoazetidin-1-yl) benzamide], the 50% inhibitory concentration (IC50) worked out at 1.31 µg/mL (≈ 2.55 µM) in assay [1] (setting [3]) and 89.2 µg/mL (≈ 174 µM) in assay [2]. `O=C(NN1C(=O)C(Cl)C1c1ccc(O)cc1)c1ccc(OCc2ccccc2)cc1` (stereo not shown) [Derivative 6a, 4-(Benzyloxy)-N-(3-chloro-2-(4-hydroxyphenyl)-4-oxoazetidin-1-yl) benzamide]: the 50% inhibitory concentration (IC50) in assay [1] (setting [3]) came to 0.652 µg/mL (≈ 1.54 µM); in assay [2], 82.6 µg/mL (≈ 195 µM). Consider `CO[C@H]1/C=C/O[C@@]2(C)Oc3c(C)c(O)c4c(O)c(c(/C=N/N5CCN(C)CC5)c(O)c4c3C2=O)NC(=O)/C(C)=C\C=C\[C@H](C)[C@H](O)[C@@H](C)[C@@H](O)[C@@H](C)[C@H](OC(C)=O)[C@@H]1C` [Rifampicin, reference compound], for which the IC50 in assay [1] was determined as 0.004 µg/mL (≈ 0.00486 µM). `O=C(NN1C(=O)C(Cl)C1c1cccs1)c1ccc(OCc2ccccc2)cc1` (stereo not shown) [Derivative 6j, 4-(Benzyloxy)-N-(3-chloro-2-oxo-4-(thiophen-2-yl)azetidin-1-yl) benzamide]: the values for the half-inhibitory concentration (IC50) in assay [1] (setting [3]) and in assay [2] were 0.786 µg/mL (≈ 1.9 µM) and 33.2 µg/mL (≈ 80.4 µM), respectively. As to `CC(=O)O[C@H]1C(=O)[C@@]2(C)[C@H]([C@H](OC(=O)c3ccccc3)[C@]3(O)C[C@H](OC(=O)[C@H](O)[C@@H](NC(=O)c4ccccc4)c4ccccc4)C(C)=C1C3(C)C)[C@]1(OC(C)=O)CO[C@@H]1C[C@@H]2O` [Paclitaxel, reference compound], the half-maximal inhibitory concentration (IC50) in assay [2] is 0.0056 µg/mL (≈ 0.00656 µM). For the molecule `COc1cc(C2C(Cl)C(=O)N2NC(=O)c2ccc(OCc3ccccc3)cc2)ccc1O` (stereo not shown) [Derivative 6g, 4-(Benzyloxy)-N-(3-chloro-2-(4-hydroxy-3-methoxyphenyl)-4-oxoazetidin-1-yl) benzamide], the half-maximal inhibitory concentration (IC50) in assay [1] (setting [3]) is 0.718 µg/mL (≈ 1.59 µM); in assay [2], > 100 µg/mL.

Take `O=C(NN1C(=O)C(Cl)C1c1ccc(F)cc1)c1ccc(OCc2ccccc2)cc1` (stereo not shown) [Derivative 6c, 4-(Benzyloxy)-N-(3-chloro-2-(4-fluorophenyl)-4-oxoazetidin-1-yl) benzamide]: the half-inhibitory concentration (IC50) in assay [1] (setting [3]) was 0.85 µg/mL (≈ 2 µM); in assay [2], 31.6 µg/mL (≈ 74.4 µM). For `COc1ccc(C2C(Cl)C(=O)N2NC(=O)c2ccc(OCc3ccccc3)cc2)cc1OC` (stereo not shown) [Derivative 6f, 4-(Benzyloxy)-N-(3-chloro-2-(3,4-dimethoxyphenyl)-4-oxoazetidin-1-yl) benzamide], the concentration for half-maximal inhibition (IC50) in assay [1] (setting [3]) was found to be 1.72 µg/mL (≈ 3.67 µM); in assay [2] it was 44.1 µg/mL (≈ 94.4 µM).

On to `COc1ccc(C2C(Cl)C(=O)N2NC(=O)c2ccc(OCc3ccccc3)cc2)cc1` (stereo not shown) [Derivative 6b, 4-(Benzyloxy)-N-(3-chloro-2-(4-methoxyphenyl)-4-oxoazetidin-1-yl) benzamide], for which the IC50 in assay [1] (setting [3]) amounted to 0.918 µg/mL (≈ 2.1 µM); in assay [2], 54.9 µg/mL (≈ 126 µM).

Values taken from publication PMC6222352, “Ultrasound Assisted Synthesis of 4-(Benzyloxy)-N-(3-chloro-2-(substitutedphenyl)-4-oxoazetidin-1-yl) Benzamide as Challenging Anti-Tubercular Scaffold” (Molecules : A Journal of Synthetic Chemistry and Natural …, 2018).
